# Assay results as given in US20210139477A1, “ALK5 INHIBITORS, CONJUGATES, AND USES THEREOF” (Silverback Therapeutics, Inc., priority 2019, published 2021).
# pEC50: −log10 of the molar value.
# Test system: TGFb/SMAD Signaling Pathway SBE reporter cell line
# Assay: TGFb reporter assay (TGFb/SMAD Signaling Pathway SBE luciferase reporter cell line)
# Format: cell-based
# Conditions: 5-6 h preincubation, then TGFb, 18 h, luciferase luminescence
# Procedure: TGFβ/SMAD Signaling Pathway SBE reporter cell line was obtained from BPS Bioscience. Cells were passed, expanded, and stored in liquid nitrogen as per the supplier's instructions with the exception that growth media is changed to DMEM-C with Geneticin (DMEM supplemented with 10% fetal bovine serum, 1×NEAA, 1 mM Pyruvate, 2 mM glutamine, 50 μg/mL penicillin, 50 U/mL streptomycin and 400 μg/mL of Geneticin). The assay media was MEM supplemented with 0.5% fetal bovine serum, 1×NEAA, 1 mM Pyruvate, 50 μg/mL penicillin and 50 U/mL streptomycin.
# TGFb/SMAD Signaling Pathway SBE reporter cell line was obtained from BPS Bioscience. Cells were passed/expanded/stored in liquid nitrogen per supplier's instruction with the exception that growth media was changed to DMEM-C with Geneticin (DMEM supplemented with 10% fetal bovine serum, IX NEAA, 1 mM Pyruvate, 2 mM glutamine, 50 μg/mL penicillin, 50 U/mL streptomycin and 400 ug/mL of Geneticin). The assay media was MEM supplemented with 0.5% fetal bovine serum, IX NEAA, 1 mM Pyruvate, 50 μg/mL penicillin and 50 U/mL streptomycin.
# Reporter cells were harvested from the tissue culture flasks by incubation in small quantity of Versene at room temperature for three to five minutes after the media in the flask was removed and cells rinsed with PBS. Cells were counted and diluted in the assay media at 0.8×10^6 cells/mL then 50 uL/well were added to 96-well assay plate. Test samples (at desired concentrations diluted in assay media) were added to assay plate containing the 50 uL/well of cells (or media only), 50 uL per well, and incubated for 5-6 hours at 37° C. in a 5% CO2 humidified incubator. After that time, 15 uL of TGFb diluted to 12.5 ng/mL in the assay media was added to the plate. Controls included TGFb titration (from 25 to 0 ng/mL) without inhibitors, and media only (without cells, inhibitor or TGFb). Plates were incubated at 37° C. in a […] humidified incubator for 18 h. Luciferase substrate solution was subsequently added at 75 uL per well, incubated in dark with shaking at room temperature for 10 min, and luminescence was measured using a luminometer.
row,SMILES,pEC50
1,"Cc1cccc(-c2nc(CNCc3ccccc3)[nH]c2-c2ccc3ncnn3c2)n1 [Compound 1, 1-(5-([1,2,4]triazolo[1,5-a]pyridin-6-yl)-4-(6-methylpyridin-2-yl)-1H-imidazol-2-yl)-N-benzylmethanamine]",8.00 to 10.00
2,Cc1cccc(-c2nc(CNCc3cccc(Cl)c3)[nH]c2-c2ccc3ncnn3c2)n1 [Compound 2],7.00 to 8.00
3,Cc1cccc(-c2nc(CNCc3ccc(Cl)cc3)[nH]c2-c2ccc3ncnn3c2)n1 [Compound 3],7.00 to 8.00
4,Cc1cccc(-c2nc(CNCc3ccc(Cl)c(Cl)c3)[nH]c2-c2ccc3ncnn3c2)n1 [Compound 4],6.00 to 7.00
5,Cc1cccc(-c2nc(CNCc3cc(Cl)ccc3Cl)[nH]c2-c2ccc3ncnn3c2)n1 [Compound 5],7.00 to 8.00
6,Cc1cccc(-c2nc(CNCc3c(Cl)cccc3Cl)[nH]c2-c2ccc3ncnn3c2)n1 [Compound 6],8.00 to 10.00
7,COc1cccc(CNCc2nc(-c3cccc(C)n3)c(-c3ccc4ncnn4c3)[nH]2)c1 [Compound 7],8.00 to 10.00
8,COc1ccc(CNCc2nc(-c3cccc(C)n3)c(-c3ccc4ncnn4c3)[nH]2)cc1 [Compound 8],6.00 to 7.00
9,COc1ccc(OC)c(CNCc2nc(-c3cccc(C)n3)c(-c3ccc4ncnn4c3)[nH]2)c1 [Compound 9],7.00 to 8.00
10,Cc1cccc(-c2nc(CN[C@H](C)c3ccccc3)[nH]c2-c2ccc3ncnn3c2)n1 [Compound 11],7.00 to 8.00
11,Cc1cccc(-c2nc(CNC(c3ccccc3)c3ccccc3)[nH]c2-c2ccc3ncnn3c2)n1 [Compound 13],8.00 to 10.00
12,Cc1cccc(-c2nc(CN[C@@H](CO)c3ccccc3)[nH]c2-c2ccc3ncnn3c2)n1 [Compound 14],7.00 to 8.00
13,COC(=O)[C@H](NCc1nc(-c2cccc(C)n2)c(-c2ccc3ncnn3c2)[nH]1)c1ccccc1 [Compound 15],6.00 to 7.00
14,COc1ccccc1CNCc1nc(-c2cccc(C)n2)c(-c2ccc3ncnn3c2)[nH]1 [Compound 17],7.00 to 8.00
15,Cc1cccc(-c2nc(CNCc3ccccc3F)[nH]c2-c2ccc3ncnn3c2)n1 [Compound 18],8.00 to 10.00
16,Cc1cccc(-c2nc(CNCc3ccccc3C#N)[nH]c2-c2ccc3ncnn3c2)n1 [Compound 20],6.00 to 7.00
17,Cc1cccc(-c2nc(CNCc3ccccc3C)[nH]c2-c2ccc3ncnn3c2)n1 [Compound 21],8.00 to 10.00
18,CCc1ccccc1CNCc1nc(-c2cccc(C)n2)c(-c2ccc3ncnn3c2)[nH]1 [Compound 22],8.00 to 10.00
19,Cc1cccc(-c2nc(CNCc3ccccc3C(C)C)[nH]c2-c2ccc3ncnn3c2)n1 [Compound 23],8.00 to 10.00
20,Cc1cccc(-c2nc(CNCc3ccccc3-c3ccccc3)[nH]c2-c2ccc3ncnn3c2)n1 [Compound 24],8.00 to 10.00
21,Cc1cccc(-c2nc(CNCc3ccccc3N(C)C)[nH]c2-c2ccc3ncnn3c2)n1 [Compound 25],8.00 to 10.00
22,Cc1cccc(-c2nc(CNCc3ccccc3OC(F)(F)F)[nH]c2-c2ccc3ncnn3c2)n1 [Compound 26],8.00 to 10.00

row,SMILES,pEC50
1,Cc1cccc(-c2nc(CNCc3ccccc3CC(F)(F)F)[nH]c2-c2ccc3ncnn3c2)n1 [Compound 27],8.00 to 10.00
2,Cc1cccc(-c2nc(CNCc3ccccc3C(O)C(F)(F)F)[nH]c2-c2ccc3ncnn3c2)n1 (centres unmarked) [Compound 28],8.00 to 10.00
3,Cc1cccc(-c2nc(CNCc3ccccc3-c3ccccc3CNC(=O)OC(C)(C)C)[nH]c2-c2ccc3ncnn3c2)n1 [Compound 29],6.00 to 7.00
4,Cc1cccc(-c2nc(CNCc3ccccc3-c3cccc(CNC(=O)OC(C)(C)C)c3)[nH]c2-c2ccc3ncnn3c2)n1 [Compound 30],6.00 to 7.00
5,Cc1cccc(-c2nc(CNCc3ccccc3-c3ccc(CNC(=O)OC(C)(C)C)cc3)[nH]c2-c2ccc3ncnn3c2)n1 [Compound 31],6.00 to 7.00
6,Cc1cccc(-c2nc(CNCc3ccccc3-c3ccccc3CN)[nH]c2-c2ccc3ncnn3c2)n1 [Compound 32],6.00 to 7.00
7,Cc1cccc(-c2nc(CNCc3ccccc3-c3cccc(CN)c3)[nH]c2-c2ccc3ncnn3c2)n1 [Compound 33],6.00 to 7.00
8,Cc1cccc(-c2nc(CNCc3ccccc3-c3ccc(CN)cc3)[nH]c2-c2ccc3ncnn3c2)n1 [Compound 34],6.00 to 7.00
9,Cc1cccc(-c2nc(CNCc3ccccc3-c3ccc(F)cc3)[nH]c2-c2ccc3ncnn3c2)n1 [Compound 35],8.00 to 10.00
10,Cc1cccc(-c2nc(CNCc3ccccc3-c3ccc(F)c(F)c3)[nH]c2-c2ccc3ncnn3c2)n1 [Compound 36],7.00 to 8.00
11,Cc1cccc(-c2nc(CNCc3ccccc3-c3cccc(F)c3)[nH]c2-c2ccc3ncnn3c2)n1 [Compound 37],7.00 to 8.00
12,Cc1cccc(-c2nc(CNCc3ccccc3-c3ccccc3F)[nH]c2-c2ccc3ncnn3c2)n1 [Compound 38],8.00 to 10.00
13,Cc1cccc(-c2nc(CNCc3ccccc3-c3cc(F)cc(F)c3)[nH]c2-c2ccc3ncnn3c2)n1 [Compound 39],7.00 to 8.00
14,Cc1cccc(-c2nc(CNCc3ccccc3-c3ccccn3)[nH]c2-c2ccc3ncnn3c2)n1 [Compound 40],7.00 to 8.00
15,Cc1cccc(-c2nc(CNCc3ccccc3-c3cccnc3)[nH]c2-c2ccc3ncnn3c2)n1 [Compound 41],8.00 to 10.00
16,Cc1cccc(-c2nc(CNCc3ccccc3-c3ccncc3)[nH]c2-c2ccc3ncnn3c2)n1 [Compound 42],7.00 to 8.00
17,Cc1cccc(-c2nc(CNCc3ccccc3C3CCCCC3)[nH]c2-c2ccc3ncnn3c2)n1 [Compound 43],6.00 to 7.00
18,Cc1cccc(-c2nc(CNCc3ccccc3C3CCCC3)[nH]c2-c2ccc3ncnn3c2)n1 [Compound 44],7.00 to 8.00
19,Cc1cccc(-c2nc(CNCc3cccc(C)c3C)[nH]c2-c2ccc3ncnn3c2)n1 [Compound 45],8.00 to 10.00
20,COc1cccc(CNCc2nc(-c3cccc(C)n3)c(-c3ccc4ncnn4c3)[nH]2)c1C [Compound 46],8.00 to 10.00
21,Cc1cccc(-c2nc(CNCc3cccc(Cl)c3C)[nH]c2-c2ccc3ncnn3c2)n1 [Compound 47],8.00 to 10.00
22,Cc1cccc(-c2nc(CNCc3cccc(C)c3-c3ccccc3)[nH]c2-c2ccc3ncnn3c2)n1 [Compound 48],7.00 to 8.00

row,SMILES,pEC50
1,Cc1cccc(-c2nc(CNCc3cccc(-c4ccccc4)c3C)[nH]c2-c2ccc3ncnn3c2)n1 [Compound 49],7.00 to 8.00
2,Cc1cccc(CNCc2nc(-c3cccc(C)n3)c(-c3ccc4ncnn4c3)[nH]2)c1 [Compound 50],7.00 to 8.00
3,Cc1cccc(-c2nc(CNCc3cccc(-c4ccccc4)c3)[nH]c2-c2ccc3ncnn3c2)n1 [Compound 51],6.00 to 7.00
4,Cc1cccc(-c2nc(CNCCc3ccccc3)[nH]c2-c2ccc3ncnn3c2)n1 [Compound 52],8.00 to 10.00
5,Cc1cccc(-c2nc(CNCc3ccccc3Oc3ccccc3)[nH]c2-c2ccc3ncnn3c2)n1 [Compound 53],8.00 to 10.00
6,Cc1cccc(-c2nc(CNCc3ccccc3Oc3cccnc3)[nH]c2-c2ccc3ncnn3c2)n1 [Compound 54],8.00 to 10.00
7,Cc1cccc(-c2nc(CNCc3ccccc3Oc3ccncc3)[nH]c2-c2ccc3ncnn3c2)n1 [Compound 55],5.00 to 6.00
8,Cc1cccc(-c2nc(CNCc3cccc(Oc4ccccc4)c3)[nH]c2-c2ccc3ncnn3c2)n1 [Compound 56],7.00 to 8.00
9,Cc1cccc(-c2nc(CNCc3cccc(Oc4cccnc4)c3)[nH]c2-c2ccc3ncnn3c2)n1 [Compound 57],7.00 to 8.00
10,Cc1cccc(-c2nc(CNCc3cccc(Oc4ccncc4)c3)[nH]c2-c2ccc3ncnn3c2)n1 [Compound 58],7.00 to 8.00
11,Cc1cccc(-c2nc(CNCCc3ccccc3F)[nH]c2-c2ccc3ncnn3c2)n1 [Compound 59],8.00 to 10.00
12,Cc1cccc(-c2nc(CNCCc3c(F)cccc3F)[nH]c2-c2ccc3ncnn3c2)n1 [Compound 60],8.00 to 10.00
13,Cc1cccc(-c2nc(CNCCc3cccc(F)c3)[nH]c2-c2ccc3ncnn3c2)n1 [Compound 61],8.00 to 10.00
14,Cc1cccc(-c2nc(CNCCc3ccc(F)cc3F)[nH]c2-c2ccc3ncnn3c2)n1 [Compound 63],8.00 to 10.00
15,Cc1cccc(-c2nc(CNCCCc3ccccc3)[nH]c2-c2ccc3ncnn3c2)n1 [Compound 64],8.00 to 10.00
16,Cc1cccc(-c2nc(CNCCOc3ccccc3)[nH]c2-c2ccc3ncnn3c2)n1 [Compound 65],8.00 to 10.00
17,Cc1cccc(-c2nc(CNCCNc3ccccc3)[nH]c2-c2ccc3ncnn3c2)n1 [Compound 66],8.00 to 10.00
18,Cc1cccc(-c2nc(CNCCN(C)c3ccccc3)[nH]c2-c2ccc3ncnn3c2)n1 [Compound 67],8.00 to 10.00
19,Cc1cccc(-c2nc(CNCc3ccccc3-c3ccccc3)[nH]c2-c2ccc3ncccc3n2)n1 [Compound 68],7.00 to 8.00
20,Cc1cccc(-c2nc(CNCc3ccccc3-c3ccccc3)[nH]c2-c2ccnc3ccccc23)n1 [Compound 69],6.00 to 7.00
21,Cc1cccc(-c2nc(CNCc3ccccc3-c3ccccc3)[nH]c2-c2ccc3c(c2)OCO3)n1 [Compound 71],6.00 to 7.00
